Data as given in US20240190860A1, “8-CYCLO-SUBSTITUTED QUINAZOLINE DERIVATIVES AS LPA RECEPTOR 2 INHIBITORS” (CHIESI FARMACEUTICI S.p.A., priority 2021, published 2024).

Target: T1, human recombinant LPA2 expressed in CHO cells (Homo sapiens, UniProt Q9HBW0)
T1 construct: expressed in transfected cells; host or cells: CHO cells (CHO-hLPA2 cell line)
Experiment: FLIPR calcium mobilization assay, LPA2 antagonism in CHO-hLPA2 cells
Assay type: cell-based
Settings: CHO-hLPA2 cells, inhibition of LPA EC80 Ca2+ response, 30 min pre-incubation; read-out: LPA2 IC50
Description: The effectiveness of compounds of the present invention as LPA2 antagonist can be determined at the human recombinant LPA2 expressed in CHO cells, using a FLIPR assay in 384 well format.
CHO-hLPA2 cell lines are cultured in a humidified incubator at 5% C02 in DMEM/F-12 (1:1) MIXTURE with 2 mM Glutamax, supplemented with 10% of Foetal Bovine Serum, 1 mM Sodium Pyruvate, 11 mM Hepes and 1× Penicillin/Streptomycin. CHO hLPA2 cells are seeded into black walled clear-bottom 384-well plates (#781091, Greiner Bio-One GmbH) at a density of 7,500 cells per well in 50 μl culture media and grown overnight in a 37° C. humidified CO2-incubator. Serial dilutions (1:3 or 1:4, 11 points CRC) of compounds are performed in 100% DMSO at 200× the final concentration. The compounds are diluted 1:50 prior to the experiment with Assay Buffer (20 mM HEPES, 145 mM NaCl, 5 mM KCl, 5.5 mM glucose, 1 mM MgCl2 and 2 mM CaCl2, pH 7.4 containing 0.01% Pluronic F-127) to obtain a solution corresponding to […] the final concentration in the assay (4×, 2% DMSO). The final concentration of DMSO in the assay will be 0.5% in each well. Medium is removed by aspiration and cells are then incubated with 30 μl of a loading solution containing 5 μM of the cytoplasmic Ca2+ indicator Cal-520 AM in Assay Buffer containing 2.5 mM probenecid for 30 min at 37° C. incubator (cell loading). The loaded cell plates are transferred into the FLIPR instrument and calcium responses are monitored during the on-line addition protocols. For testing of compounds, after the cell loading, 10 μl/well of 4× antagonists' solution was added onto the cells. After 30 min pre-incubation (at 37° C.), 10 μl/well of 5× concentrated LPA EC80 was added and Ca2+ mobilization responses was followed during the on-line addition protocol. Intracellular peak fluorescence values subtracted by baseline fluorescence are exported and analysed to determine IC50 values, respectively. The calcium response is expressed as percentage of the maximal inhibition of the EC80 agonist response.
The raw data (peak height expressed as relative fluorescence units) are normalized and transformed into “percent of inhibition”. Curve fitting and pIC50 (−LogIC50) estimations are carried out using a four-parameter logistic model using XLfit Software.

T1 sequence (Q9HBW0 whole entry): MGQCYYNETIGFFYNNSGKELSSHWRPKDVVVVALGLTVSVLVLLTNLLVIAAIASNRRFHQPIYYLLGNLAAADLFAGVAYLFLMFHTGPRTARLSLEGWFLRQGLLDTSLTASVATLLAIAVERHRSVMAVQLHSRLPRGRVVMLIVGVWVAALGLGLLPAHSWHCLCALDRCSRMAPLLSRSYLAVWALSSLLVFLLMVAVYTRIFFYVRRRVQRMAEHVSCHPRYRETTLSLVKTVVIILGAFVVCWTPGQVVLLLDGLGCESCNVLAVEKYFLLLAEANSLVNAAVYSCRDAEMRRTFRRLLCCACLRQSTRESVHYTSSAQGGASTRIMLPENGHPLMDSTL

SMILES | IC50
COC(=O)Nc1nc(C)c(S(=O)(=O)N2CCN(C[C@H](C)Nc3ncnc4c(-c5sc(C)nc5C)cccc34)CC2)s1 [Example 1, methyl N-[5-({4-[(2S)-2-{[8-(2,4-dimethyl-1,3-thiazol-5-yl)quinazolin-4-yl]amino}propyl]piperazin-1-yl}sulfonyl)-4-methyl-1,3-thiazol-2-yl]carbamate] | < 10 nM
COC(=O)Nc1nc(C)c(S(=O)(=O)N2CCN(C[C@H](C)Nc3ncnc4c(-c5cnc(C)cn5)cccc34)CC2)s1 [Example 2, methyl N-[4-methyl-5-({4-[(2S)-2-{[8-(5-methylpyrazin-2-yl)quinazolin-4-yl]amino}propyl]piperazin-1-yl}sulfonyl)-1,3-thiazol-2-yl]carbamate] | 10 to 100 nM
Cc1noc(-c2ccc(S(=O)(=O)N3CCN(C[C@H](C)Nc4ncnc5c(-c6c(C)noc6C)cccc45)CC3)s2)c1C [Example 9, 8-(3,5-dimethyl-1,2-oxazol-4-yl)-N-[(2S)-1-(4-{[5-(3,4-dimethyl-1,2-oxazol-5-yl)thiophen-2-yl]sulfonyl}piperazin-1-yl)propan-2-yl]quinazolin-4-amine] | < 10 nM
COC(=O)Nc1nc(C)c(S(=O)(=O)N2CCN(C[C@H](C)Nc3ncnc4c(-c5c(C)noc5C)cccc34)CC2)s1 [Example 10, methyl N-[5-({4-[(2S)-2-{[8-(3,5-dimethyl-1,2-oxazol-4-yl)quinazolin-4-yl]amino}propyl]piperazin-1-yl}sulfonyl)-4-methyl-1,3-thiazol-2-yl]carbamate] | < 10 nM
Cc1cc(-c2ccc(S(=O)(=O)N3CCN(C[C@H](C)Nc4ncnc5c(-c6cn(C)nc6C(F)(F)F)cccc45)CC3)s2)on1 [Example 14, N-[(2S)-1-(4-{[5-(3-methyl-1,2-oxazol-5-yl)thiophen-2-yl]sulfonyl}piperazin-1-yl)propan-2-yl]-8-[1-methyl-3-(trifluoromethyl)-1H-pyrazol-4-yl]quinazolin-4-amine] | < 10 nM
Cc1cc(-c2ccc(S(=O)(=O)N3CCN(C[C@H](C)Nc4ncnc5c(-c6cccc(CN7CCCC7)c6)cccc45)CC3)s2)on1 [Example 16, N-[(2S)-1-(4-{[5-(3-methyl-1,2-oxazol-5-yl)thiophen-2-yl]sulfonyl}piperazin-1-yl)propan-2-yl]-8-{3-[(pyrrolidin-1-yl)methyl]phenyl}quinazolin-4-amine] | < 10 nM
Cc1cc(-c2ccc(S(=O)(=O)N3CCN(C[C@H](C)Nc4ncnc5c(-c6cn(C)nc6C6CC6)cccc45)CC3)s2)on1 [Example 18, 8-(3-cyclopropyl-1-methyl-1H-pyrazol-4-yl)-N-[(2S)-1-(4-{[5-(3-methyl-1,2-oxazol-5-yl)thiophen-2-yl]sulfonyl}piperazin-1-yl)propan-2-yl]quinazolin-4-amine] | < 10 nM
Cc1cc(-c2ccc(S(=O)(=O)N3CCN(CCNc4ncnc5c(-c6cccnc6)cccc45)CC3)s2)on1 [Example 19, N-[2-(4-{[5-(3-methyl-1,2-oxazol-5-yl)thiophen-2-yl]sulfonyl}piperazin-1-yl)ethyl]-8-(pyridin-3-yl)quinazolin-4-amine] | < 1000 nM
Cc1cc(-c2ccc(S(=O)(=O)N3CCN(C[C@H](C)Nc4ncnc5c(N6CCCC6)cccc45)CC3)s2)on1 [Example 20, N-[(2S)-1-(4-{[5-(3-methyl-1,2-oxazol-5-yl)thiophen-2-yl]sulfonyl}piperazin-1-yl)propan-2-yl]-8-(pyrrolidin-1-yl)quinazolin-4-amine] | < 10 nM
COC(=O)Nc1nc(C)c(S(=O)(=O)N2CCN(C[C@H](C)Nc3ncnc4c(-c5cccc(CN(C)C)c5)cccc34)CC2)s1 [Example 21, methyl N-[5-({4-[(2S)-2-[(8-{3-[(dimethylamino)methyl]phenyl}quinazolin-4-yl)amino]propyl]piperazin-1-yl}sulfonyl)-4-methyl-1,3-thiazol-2-yl]carbamate] | < 10 nM
COC(=O)Nc1nc(C)c(S(=O)(=O)N2CCN(C[C@H](C)Nc3ncnc4c(-c5cccc(CN6CCCC6)c5)cccc34)CC2)s1 [Example 22, methyl N-[4-methyl-5-({4-[(2S)-2-[(8-{3-[(pyrrolidin-1-yl)methyl]phenyl}quinazolin-4-yl)amino]propyl]piperazin-1-yl}sulfonyl)-1,3-thiazol-2-yl]carbamate] | < 10 nM
COC(=O)Nc1nc(C)c(S(=O)(=O)N2CCN(C[C@H](C)Nc3ncnc4c(-c5cccc(CN6CCN(C)CC6)c5)cccc34)CC2)s1 [Example 24, methyl N-[4-methyl-5-({4-[(2S)-2-[(8-{3-[(4-methylpiperazin-1-yl)methyl]phenyl}quinazolin-4-yl)amino]propyl]piperazin-1-yl}sulfonyl)-1,3-thiazol-2-yl]carbamate] | < 10 nM

Other lines, results leading:

IC50 | SMILES
< 10 nM | Cc1cc(-c2ccc(S(=O)(=O)N3CCN(C[C@H](C)Nc4ncnc5c(-c6c(C)noc6C)cccc45)CC3)s2)on1 [Example 3, 8-(3,5-dimethyl-1,2-oxazol-4-yl)-N-[(2S)-1-(4-{[5-(3-methyl-1,2-oxazol-5-yl)thiophen-2-yl]sulfonyl}piperazin-1-yl)propan-2-yl]quinazolin-4-amine]
< 10 nM | Cc1cc(-c2ccc(S(=O)(=O)N3CCN(C[C@H](C)Nc4ncnc5c(-c6ccccc6)cccc45)CC3)s2)on1 [Example 4, N-[(2S)-1-(4-{[5-(3-methyl-1,2-oxazol-5-yl)thiophen-2-yl]sulfonyl}piperazin-1-yl)propan-2-yl]-8-phenylquinazolin-4-amine]
< 10 nM | Cc1cc(-c2ccc(S(=O)(=O)N3CCN(C[C@H](C)Nc4ncnc5c(-c6c(C)nn(C)c6C)cccc45)CC3)s2)on1 [Example 5, N-[(2S)-1-(4-{[5-(3-methyl-1,2-oxazol-5-yl)thiophen-2-yl]sulfonyl}piperazin-1-yl)propan-2-yl]-8-(1,3,5-trimethyl-1H-pyrazol-4-yl)quinazolin-4-amine]
< 10 nM | Cc1cc(-c2ccc(S(=O)(=O)N3CCN(C[C@H](C)Nc4ncnc5c(-c6cccnc6)cccc45)CC3)s2)on1 [Example 6, N-[(2S)-1-(4-{[5-(3-methyl-1,2-oxazol-5-yl)thiophen-2-yl]sulfonyl}piperazin-1-yl)propan-2-yl]-8-(pyridin-3-yl)quinazolin-4-amine]
< 10 nM | Cc1cc(-c2ccc(S(=O)(=O)N3CCN(C[C@H](C)Nc4ncnc5c(-c6sc(C)nc6C)cccc45)CC3)s2)on1 [Example 7, 8-(2,4-dimethyl-1,3-thiazol-5-yl)-N-[(2S)-1-(4-{[5-(3-methyl-1,2-oxazol-5-yl)thiophen-2-yl]sulfonyl}piperazin-1-yl)propan-2-yl]quinazolin-4-amine]
< 10 nM | Cc1cc(-c2ccc(S(=O)(=O)N3CCN(C[C@H](C)Nc4ncnc5c(-c6ccncc6)cccc45)CC3)s2)on1 [Example 8, N-[(2S)-1-(4-{[5-(3-methyl-1,2-oxazol-5-yl)thiophen-2-yl]sulfonyl}piperazin-1-yl)propan-2-yl]-8-(pyridin-4-yl)quinazolin-4-amine]
< 10 nM | Cc1cc(-c2ccc(S(=O)(=O)N3CCN(C[C@H](C)Nc4ncnc5c(-c6cncnc6)cccc45)CC3)s2)on1 [Example 11, N-[(2S)-1-(4-{[5-(3-methyl-1,2-oxazol-5-yl)thiophen-2-yl]sulfonyl}piperazin-1-yl)propan-2-yl]-8-(pyrimidin-5-yl)quinazolin-4-amine]
< 10 nM | Cc1cc(-c2ccc(S(=O)(=O)N3CCN(C[C@H](C)Nc4ncnc5c(-c6ccccn6)cccc45)CC3)s2)on1 [Example 12, N-[(2S)-1-(4-{[5-(3-methyl-1,2-oxazol-5-yl)thiophen-2-yl]sulfonyl}piperazin-1-yl)propan-2-yl]-8-(pyridin-2-yl)quinazolin-4-amine]
< 1000 nM | Cc1cc(-c2ccc(S(=O)(=O)N3CCN(C[C@H](C)Nc4ncnc5c(-c6cnc(C(F)(F)F)s6)cccc45)CC3)s2)on1 [Example 15, N-[(2S)-1-(4-{[5-(3-methyl-1,2-oxazol-5-yl)thiophen-2-yl]sulfonyl}piperazin-1-yl)propan-2-yl]-8-[2-(trifluoromethyl)-1,3-thiazol-5-yl]quinazolin-4-amine]
< 10 nM | Cc1cc(-c2ccc(S(=O)(=O)N3CCN(C[C@H](C)Nc4ncnc5c(-c6cccc(CN(C)C)c6)cccc45)CC3)s2)on1 [Example 17, 8-{3-[(dimethylamino)methyl]phenyl}-N-[(2S)-1-(4-{[5-(3-methyl-1,2-oxazol-5-yl)thiophen-2-yl]sulfonyl}piperazin-1-yl)propan-2-yl]quinazolin-4-amine]
